Experimental data reported in patent US20220296595A1, “CDK INHIBITORS” (QILU REGOR THERAPEUTICS INC., priority 2019, published 2022).
Like-named read-outs stand apart in the source and are kept apart here.

Legend:
CDK2/CyclinE1 = biological target: T1, CDK2/CyclinE1 (Homo sapiens, UniProt P24941); assay: Assay for inhibition of CDK2/CyclinE1 (Caliper microfluidic kinase assay); assay type: biochemical; settings: read-out: CDK2 IC50
T1 construct: purchased SignalChem C29-18G
In short: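 IC50 came from 4-parameter fits of substrate-to-product conversion, separated on a Caliper chip after an EDTA stop. Reactions ran 3 hours at room temperature with 100 μM ATP, 5 μM fluorescent FL-18 peptide and 5 nM enzyme in 100 mM HEPES pH 7.5, 10 mM MgCl2.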

[1] = test system: phosphorylation of Retinoblastoma Protein (pRb Ser807/811 or Ser780) in T47D cells; assay: Inhibition of phosphorylation of retinoblastoma protein (pRb) in T47D cell (ELISA); assay type: cell-based, human; settings: Homo sapiens, T47D, read-out: Phospho T47D Ser807 IC50, pRb Ser807 phosphorylation, T47D cells
In short: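 T47D cells in RPMI 1640 + 10% FBS, adhered overnight, then treated 24 h with 3-fold compound titrations (top concentration […]). Lysates assayed by sandwich ELISA for pRb Ser807/811 or Ser780 with HRP/TMB detection. IC50 from 4-parameter sigmoidal fit.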

CDK4/CyclinD1 = biological target: T2, CDK4/CyclinD1 (Homo sapiens, UniProt P11802); assay: Assay for inhibition of CDK4/CyclinD1 (Caliper microfluidic kinase assay); assay type: biochemical
T2 construct: purchased Thermofisher PR8064A
T2 sequence (P11802 whole entry): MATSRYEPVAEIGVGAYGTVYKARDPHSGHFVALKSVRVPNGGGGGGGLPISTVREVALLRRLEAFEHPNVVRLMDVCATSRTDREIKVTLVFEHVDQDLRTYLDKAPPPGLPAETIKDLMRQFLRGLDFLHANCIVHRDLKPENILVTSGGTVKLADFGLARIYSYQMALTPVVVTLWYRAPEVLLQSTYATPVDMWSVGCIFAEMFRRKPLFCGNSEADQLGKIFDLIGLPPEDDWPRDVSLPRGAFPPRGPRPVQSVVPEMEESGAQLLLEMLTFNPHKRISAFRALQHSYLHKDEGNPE
T2 sequence (P24385 whole entry partner): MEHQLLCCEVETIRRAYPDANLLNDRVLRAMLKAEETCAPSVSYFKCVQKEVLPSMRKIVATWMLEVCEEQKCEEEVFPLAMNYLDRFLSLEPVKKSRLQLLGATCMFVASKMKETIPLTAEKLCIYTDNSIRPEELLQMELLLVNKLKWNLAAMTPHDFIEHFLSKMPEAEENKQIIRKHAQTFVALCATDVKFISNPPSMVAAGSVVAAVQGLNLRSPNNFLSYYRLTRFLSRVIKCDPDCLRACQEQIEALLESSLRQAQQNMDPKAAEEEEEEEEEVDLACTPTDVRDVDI
In short: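 IC50 was obtained by 4-parameter sigmoidal fitting after 1 nM CDK4/CyclinD1, 200 μM ATP and 1 μM FL-34 substrate reacted for 3 h at room temperature (pH 7.5 HEPES, 10 mM MgCl2). After EDTA quench, substrate and product were separated and detected on a Caliper microfluidic chip.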

CDK6/CyclinD3 = biological target: T3, CDK6/CyclinD3 (Homo sapiens, UniProt Q00534); assay: Assay for inhibition of CDK6/CyclinD3 (Caliper microfluidic kinase assay); assay type: biochemical
T3 construct: purchased Carna 04-107
T3 sequence (Q00534 whole entry): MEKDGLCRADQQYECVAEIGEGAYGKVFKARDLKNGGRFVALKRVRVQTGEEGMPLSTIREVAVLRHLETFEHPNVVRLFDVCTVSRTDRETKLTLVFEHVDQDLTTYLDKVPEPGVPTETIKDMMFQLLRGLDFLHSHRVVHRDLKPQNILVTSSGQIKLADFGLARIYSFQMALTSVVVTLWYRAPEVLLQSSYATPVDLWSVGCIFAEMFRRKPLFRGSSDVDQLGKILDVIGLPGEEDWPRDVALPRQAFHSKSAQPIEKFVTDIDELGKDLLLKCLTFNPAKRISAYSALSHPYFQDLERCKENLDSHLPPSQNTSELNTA
T3 sequence (P30281 whole entry partner): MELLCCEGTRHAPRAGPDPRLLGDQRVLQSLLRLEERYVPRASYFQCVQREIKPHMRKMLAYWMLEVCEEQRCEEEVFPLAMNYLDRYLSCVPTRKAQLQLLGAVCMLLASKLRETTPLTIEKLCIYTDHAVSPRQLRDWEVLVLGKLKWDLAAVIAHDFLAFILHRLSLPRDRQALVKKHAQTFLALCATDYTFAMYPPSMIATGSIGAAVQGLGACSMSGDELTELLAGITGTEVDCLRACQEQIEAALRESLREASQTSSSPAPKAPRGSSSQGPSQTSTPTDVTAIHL
In short: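 IC50s came from four-parameter dose-response fits of microfluidic substrate/product separation data. Reactions held 2 nM CDK6/CyclinD3, 300 μM ATP and 1 μM 5-FAM peptide FL-34 in pH 7.5 HEPES/MgCl2 buffer, ran 3 hours at room temperature, then were quenched with EDTA.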

T47D breast cancer cells = assay: Anti-proliferation assay in T47D cell (Cyquant, day 6); assay type: cell-based, human; settings: Homo sapiens, T47D, anti-proliferation, T47D cells; read-out: T47D IC50
In short: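 A ten-point, 3-fold compound series (10 μM down to 0.51 nM) was applied to overnight-settled cells in 10% FBS RPMI 1640, and DNA content was read by CyQuant fluorescence 6 days later. An untreated plate read before dosing served as baseline for subtraction before IC50 fitting.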

SMILES | IC50 (CDK2/CyclinE1; CDK2/CyclinE1) [nM] | IC50 [1] [nM] | IC50 (CDK4/CyclinD1; CDK4/CyclinD1) [nM] | IC50 (CDK6/CyclinD3; CDK6/CyclinD3) [nM] | IC50 (T47D breast cancer cells) [nM] | IC50 (CDK2/CyclinE1; CDK2/CyclinE1, 100 μM ATP) [nM] | IC50 (CDK4/CyclinD1; CDK4/CyclinD1, 200 μM ATP) [nM] | IC50 (CDK6/CyclinD3; CDK6/CyclinD3, 300 μM ATP) [nM]
COc1nc(-c2nc(Nc3ccc(N4CCOCC4=O)cn3)ncc2F)cc2c1nc(C)n2C(C)C [compound 98] | > 1000 | < 100 | < 10 | 10 to 100 | < 100 | – | – | –
COc1nc(-c2ccnc(Nc3ccc(N4CCC(N5CC(F)C5)CC4=O)cn3)n2)cc2c1ncn2C(C)C (centres unmarked) [compound 99] | 100 to 1000 | < 100 | < 10 | 10 to 100 | < 100 | – | – | –
COc1nc(-c2nc(Nc3ccc(N4CCN(C)CC4)cn3)ncc2F)cc2c1nc(C)n2C(C)C [compound 103] | > 1000 | < 100 | 10 to 100 | 10 to 100 | 100 to 500 | – | – | –
COc1nc(-c2ccnc(Nc3ccc(N4CC5CC4CN5)cn3)n2)cc2c1ncn2C(C)C (centres unmarked) [compound 109] | – | < 100 | – | – | < 100 | > 1000 | < 10 | 10 to 100
COc1nc(-c2nc(Nc3ccc(N4CCNCC4=O)cc3F)ncc2F)cc2c1ncn2C(C)C [compound 111] | – | 100 to 500 | – | – | 100 to 500 | 10 to 100 | < 10 | 10 to 100
COc1nc(-c2nc(Nc3ccc(N4CCNCCC4=O)cn3)ncc2F)cc2c1nc(C)n2C(C)C [compound 112] | – | 100 to 500 | – | – | < 100 | > 1000 | < 10 | 10 to 100
COc1nc(-c2nc(Nc3ccc(N4CCCNCC4=O)cn3)ncc2F)cc2c1nc(C)n2C(C)C [compound 113] | – | 100 to 500 | – | – | 100 to 500 | 100 to 1000 | < 10 | 10 to 100
COc1nc(-c2nc(Nc3ccc(N4CCNCC4=O)c(F)c3)ncc2F)cc2c1ncn2C(C)C [compound 115] | – | 100 to 500 | – | – | 100 to 500 | 10 to 100 | < 10 | 10 to 100
COc1nc(-c2ccnc(Nc3ccc(N4CCNCC4=O)c(F)c3)n2)cc2c1ncn2C(C)C [compound 116] | – | < 100 | – | – | 100 to 500 | 10 to 100 | < 10 | 10 to 100
COc1nc(-c2ccnc(Nc3ccc(N4CCC(C)(N)C4)cn3)n2)cc2c1ncn2C(C)C (centres unmarked) [compound 117] | – | 100 to 500 | – | – | 100 to 500 | > 1000 | 10 to 100 | 10 to 100
COc1nc(-c2ccnc(Nc3ccc(N4CCC(C)(N)CC4)cn3)n2)cc2c1ncn2C(C)C [compound 118] | – | < 100 | – | – | 100 to 500 | > 1000 | < 10 | 10 to 100
COc1nc(-c2ccnc(Nc3ccc(N4CCN(CCF)CC4=O)cn3)n2)cc2c1ncn2C(C)C [compound 122] | – | < 100 | – | – | < 100 | 100 to 1000 | < 10 | 10 to 100
COc1nc(-c2ccnc(Nc3ccc(N4CCN(CCF)CC4)cn3)n2)cc2c1ncn2C(C)C [compound 123] | – | 100 to 500 | – | – | 100 to 500 | > 1000 | < 10 | 10 to 100
COc1nc(-c2nc(Nc3ccc(N4CCN(CCF)CC4=O)cn3)ncc2F)cc2c1ncn2C(C)C [compound 126] | – | 100 to 500 | – | – | 100 to 500 | 100 to 1000 | < 10 | 10 to 100
COc1nc(-c2nc(Nc3ccc(N4CCN(C5COC5)CC4=O)cn3)ncc2F)cc2c1ncn2C(C)C [compound 129] | – | < 100 | – | – | 100 to 500 | > 1000 | < 10 | 10 to 100
COc1nc(-c2nc(Nc3ccc(N4CCN(C5COC5)CC4=O)cn3)ncc2F)cc2c1nc(C)n2C(C)C [compound 131] | – | 100 to 500 | – | – | 100 to 500 | > 1000 | < 10 | 10 to 100

SMILES | IC50 (CDK2/CyclinE1; CDK2/CyclinE1) [nM] | IC50 [1] [nM] | IC50 (CDK4/CyclinD1; CDK4/CyclinD1) [nM] | IC50 (CDK6/CyclinD3; CDK6/CyclinD3) [nM] | IC50 (T47D breast cancer cells) [nM] | IC50 (CDK2/CyclinE1; CDK2/CyclinE1, 100 μM ATP) [nM] | IC50 (CDK4/CyclinD1; CDK4/CyclinD1, 200 μM ATP) [nM] | IC50 (CDK6/CyclinD3; CDK6/CyclinD3, 300 μM ATP) [nM]
CCN1CCN(c2ccc(Nc3ncc(F)c(-c4cc5c(ncn5C(C)C)c(OC)n4)n3)nc2)C(=O)C1 [compound 132] | – | < 100 | – | – | 100 to 500 | > 1000 | < 10 | 10 to 100
CC(C)c1cnn2ccc(-c3ccnc(Nc4ccc(N5CC(N(C)C)CCC5=O)cn4)n3)cc12 (centres unmarked) [compound 156] | – | < 100 | – | – | 100 to 500 | 10 to 100 | 10 to 100 | 100 to 1000
CC(C)c1cnn2ccc(-c3ccnc(Nc4ccc(N5CCCC(N(C)C)C5=O)cn4)n3)cc12 (centres unmarked) [compound 157] | – | < 100 | – | – | < 100 | 100 to 1000 | < 10 | 10 to 100
CC(C)c1cnn2ccc(-c3nc(Nc4ccc(N5CCC(N6CC(F)(F)C6)CC5=O)cn4)ncc3F)cc12 (centres unmarked) [compound 158] | – | < 100 | – | – | < 100 | 10 to 100 | < 10 | 10 to 100
CC(C)c1cnn2ccc(-c3nc(Nc4ccc(N5CCC(NC6CC(F)(F)C6)CC5=O)cn4)ncc3F)cc12 (centres unmarked) [compound 159] | – | < 100 | – | – | < 100 | 10 to 100 | < 10 | 10 to 100
CC(C)c1cnn2ccc(-c3ccnc(Nc4ccc(N5CCC(N6CC(F)C6)CC5=O)cn4)n3)cc12 (centres unmarked) [compound 162] | – | < 100 | – | – | < 100 | 10 to 100 | < 10 | 10 to 100
CC(C)c1cnn2ccc(-c3ccnc(Nc4ccc(N5CCNC5=O)cn4)n3)cc12 [compound 163] | – | < 100 | – | – | < 100 | 10 to 100 | < 10 | 10 to 100
CC(C)c1cnn2ccc(-c3ccnc(Nc4ccc(N5CCOCC5=O)cc4F)n3)cc12 [compound 164] | – | < 100 | – | – | < 100 | < 10 | < 10 | 10 to 100
CC(C)c1cnn2ccc(-c3ccnc(Nc4ccc(S(N)(=O)=O)cc4)n3)cc12 [compound 165] | – | 100 to 500 | – | – | < 100 | < 10 | 10 to 100 | 100 to 1000
CNC(=O)c1ccc(Nc2nccc(-c3ccn4ncc(C(C)C)c4c3)n2)cc1 [compound 166] | – | < 100 | – | – | < 100 | < 10 | < 10 | 10 to 100
CC(C)c1cnn2ccc(-c3ccnc(Nc4ccc(C(=O)N(C)C)cc4)n3)cc12 [compound 167] | – | < 100 | – | – | < 100 | < 10 | < 10 | 10 to 100
CC(C)c1cnn2ccc(-c3ccnc(Nc4ccc(C(N)=O)cc4)n3)cc12 [compound 168] | – | < 100 | – | – | < 100 | < 10 | < 10 | 10 to 100
CC(C)c1cnn2ccc(-c3ccnc(Nc4ccc(N5CCC(N6CCC6)CC5=O)cn4)n3)cc12 (centres unmarked) [compound 171] | – | < 100 | – | – | < 100 | < 10 | < 10 | 10 to 100
CC(C)c1cnn2ccc(-c3ccnc(Nc4ccc(N5CCC(N(C)C)CC5=O)cc4)n3)cc12 (centres unmarked) [compound 172] | – | < 100 | – | – | < 100 | < 10 | < 10 | < 10
CC(C)c1cnn2ccc(-c3ccnc(Nc4ccc(N5CCCNC5=O)cc4)n3)cc12 [compound 173] | – | < 100 | – | – | < 100 | 10 to 100 | < 10 | < 10
